# Test results as given in US6110400A, “Fulgimide compound and use thereof and composition containing said compound” (Tokuyama Corporation, priority 1996, dated 2000).
# Assay: Color development of photochromic cured product (color density, maximum absorption wavelength), xenon lamp 120 seconds
# Format: physicochemical
# Description: To 100 parts by weight of a polymerizable monomer consisting of 45 parts by weight of 4G, 45 parts by weight of 3PG, 9 parts by weight of GMA and 1 part by weight of MSD were added 0.05 part by weight of fulgimide compound I-(1) and 1 part by weight of Perbutyl ND as a polymerization catalyst. The solution was stirred thoroughly until the content thereof was completely dissolved. The solution was poured into a mold constituted by a glass plate and a gasket composed of an ethylene-vinyl acetate copolymer. The mold was placed in an air oven and the solution therein was subjected to polymerization at 35 to 90° C. for 20 hours. After the completion of the polymerization, the obtained photochromic cured product was removed from the glass plate of the mold.
# The obtained photochromic cured product having a thickness of 2 mm was exposed to the light emitted from a xenon lamp, model L-2480 (300 W) SHL-100, manufactured by Hamamatsu Photonics, through Aero Mass Filter (a product of Corning Co.), at 20±1° C. for 120 seconds at a beam intensity (on the polymer surface of 365 nm=2.4 mW/cm^2 and 254 nm=24 μW/cm^2, whereby the cured product was allowed to develop a color. A value [ε (120 seconds)-ε (0 seconds)] was calculated and taken as the "color density" of the developed color. In the above expression, ε (120 seconds) is an absorbance at maximum absorption wavelength after 120 seconds of irradiation, and ε (0 seconds) is an absorbance at maximum absorption wavelength under no irradiation. […]
# The procedure of Example 15 was repeated except that the composition of the polymerizable monomer was changed as shown in Table 2. […]
# [1] = maximum absorption wavelength, monomers 3PG:45,4G:45,GMA:9,MSD:1
# [2] = monomers 3PG:45,4G:45,GMA:9,MSD:1, 0.05 part fulgimide, 2 mm, 20±1° C., 120 seconds irradiation
# [3] = Ex. 29, monomers 4G:65,3G:15,GMA:9,MS:8,HEMA:2,MSD:1
# [4] = Ex. 30, monomers BR-MA:20,BzMA:25,3PG:37,GMA:9,MS:8,MSD:1
# [5] = Ex. 31, monomers BPE-100N:45,3G:37,GMA:9,MS:8,MSD:1
SMILES,max [1],Color density [2],also measured
CC1=C2C(=O)N(c3ccccc3)C(=O)C2C2(c3sc(-c4ccccc4)cc31)C1CC3CC(C1)CC2C3 (stereo not drawn) [Fulgimide compound A],555 nm,0.51 Abs,–
"CC1=C2C(=O)N(c3ccccc3C#N)C(=O)C2C2(c3sc(-c4ccccc4)cc31)C1CC3CC(C1)CC2C3 (stereo not drawn) [Fulgimide compound B, reference compound]",570 nm,0.64 Abs,–
"CC1=C2C(=O)N(c3ccc(C#N)cc3)C(=O)C2C2(c3sc(-c4ccccc4)cc31)C1CC3CC(C1)CC2C3 (stereo not drawn) [Fulgimide compound C, reference compound]",570 nm,0.63 Abs,–
"CC1=C2C(=O)N(CC#N)C(=O)C2C2(c3sc(-c4ccccc4)cc31)C1CC3CC(C1)CC2C3 (stereo not drawn) [Fulgimide compound D, reference compound]",568 nm,0.72 Abs,–
"CC1=C2C(=O)N(C#N)C(=O)C2C2(c3sc(-c4ccccc4)cc31)C1CC3CC(C1)CC2C3 (stereo not drawn) [Fulgimide compound E, reference compound]",620 nm,0.74 Abs,–
"COc1ccc(-c2cc3c(s2)C2(C4CC5CC(C4)CC2C5)C2C(=O)N(CC#N)C(=O)C2=C3C)cc1 (stereo not drawn) [Fulgimide compound F, reference compound]",578 nm,0.78 Abs,–
"COc1ccc(-c2cc3c(s2)C2(C4CC5CC(C4)CC2C5)C2C(=O)N(c4cccc(C#N)c4)C(=O)C2=C3C)cc1 (stereo not drawn) [I-(1), N-(3'-cyanophenyl)-6,7-dihydro-4-methyl-2-(4'-methoxyphenyl)spirobenzothiophenecarboxyimide-7,2'-tricyclo[3.3.1.13,7]decane]",582 nm,1.33 Abs,"Color density [3]: 1.28 Abs; max [3]: 584 nm; Color density [4]: 1.29 Abs; max [4]: 590 nm; Color density [5]: 1.11 Abs; max [5]: 590 nm; Color density (Ex. 32, monomer 4G:100): 1.41 Abs; max (Ex. 32, monomer 4G:100): 584 nm"
"CC1=C2C(=O)N(c3cccc(C#N)c3)C(=O)C2C2(c3sc(-c4ccccc4)cc31)C1CC3CC(C1)CC2C3 (stereo not drawn) [I-(2), N-(3'-cyanophenyl)-6,7-dihydro-4-methyl-2-phenylspirobenzothiophenecarboxyimide-7,2'-tricyclo[3.3.1.13,7]decane]",570 nm,1.25 Abs,–
"N#Cc1cccc(N2C(=O)C3=C(C4CC4)c4ccsc4C4(C5CC6CC(C5)CC4C6)C3C2=O)c1 (stereo not drawn) [I-(3), N-(3'-cyanophenyl)-4-cyclopropyl-6,7-dihydrospirobenzothiophenecarboxyimide-7,2'-tricyclo[3.3.1.13,7]decane]",560 nm,1.42 Abs,–
"CC1=C2C(=O)N(c3cccc(C(F)(F)F)c3)C(=O)C2C2(c3sc(-c4ccccc4)cc31)C1CC3CC(C1)CC2C3 (stereo not drawn) [I-(4), 6,7-dihydro-4-methyl-2-phenyl-N-(3'-trifluoromethylphenyl)spirobenzothiophenecarboxyimide-7,2'-tricyclo[3.3.1.13,7]decane]",566 nm,1.22 Abs,–
"CC1=C2C(=O)N(c3cccc([N+](=O)[O-])c3)C(=O)C2C2(c3sccc31)C1CC3CC(C1)CC2C3 (stereo not drawn) [I-(5), 6,7-dihydro-4-methyl-N-(3'-nitrophenyl)spirobenzothiophenecarboxyimide-7,2'-tricyclo[3.3.1.13,7]decane]",572 nm,1.36 Abs,–
CC(=O)c1cccc(N2C(=O)C3=C(C)c4cc(C)oc4C4(C5CCC4CC5)C3C2=O)c1 (stereo not drawn) [I-(6)],525 nm,1.06 Abs,–
CC1=C2C(=O)N(c3cccc(S(C)(=O)=O)c3)C(=O)C2C2(c3occc31)C1CCCC2CCC1 (stereo not drawn) [I-(7)],530 nm,1.20 Abs,–
"CC1=C2C(=O)N(c3cc(C#N)cc(C#N)c3)C(=O)C2C2(c3sc(-c4ccccc4)cc31)C1CC3CC(C1)CC2C3 (stereo not drawn) [I-(8), N-(3',5'-dicyanophenyl)-6,7-dihydro-4-methyl-2-phenylspirobenzothiophenecarboxyimide-7,2'-tricyclo[3.3.1.13,7]decane]",582 nm,1.58 Abs,–
CC1=C2C(=O)N(c3cccc(F)c3)C(=O)C2C2(c3sc(C)cc31)C1CC3CC(C1)CC2C3 (stereo not drawn) [I-(9)],574 nm,1.43 Abs,–
COC(=O)c1cccc(N2C(=O)C3=C(C)c4ccsc4C4(C5CC6CC(C5)CC4C6)C3C2=O)c1 (stereo not drawn) [I-(10)],550 nm,1.14 Abs,–
CC1=C2C(=O)N(c3cccc(C(=O)c4ccccc4)c3)C(=O)C2C2(c3sccc31)C1CC3CC(C1)CC2C3 (stereo not drawn) [I-(11)],563 nm,1.18 Abs,–
CC1=C2C(=O)N(c3cccc(S(=O)O)c3)C(=O)C2C2(c3sccc31)C1CC3CC(C1)CC2C3 (stereo not drawn) [I-(12)],567 nm,1.22 Abs,–
CC1=C2C(=O)N(c3cccc(S(=O)(=O)c4ccccc4)c3)C(=O)C2C2(c3sccc31)C1CC3CC(C1)CC2C3 (stereo not drawn) [I-(13)],564 nm,1.25 Abs,–
CC1=C2C(=O)N(c3cccc(C(=O)Oc4ccccc4)c3)C(=O)C2C2(c3sccc31)C1CC3CC(C1)CC2C3 (stereo not drawn) [I-(14)],562 nm,1.12 Abs,–
